Test results as given in ChEMBL document CHEMBL2346598, “Synthesis and pharmacological characterization of 2-(acylamino)thiophene derivatives as metabolically stable, orally effective, positive allosteric modulators of the GABAB receptor” (J Med Chem, 2013).
Calls of active or inactive are those of the source. The calls are words filed in the database; no cut-off is given here.

Key:
[1] = system: Mus musculus; assay: Hypnotic effect in DBA mouse assessed as potentiation of baclofen-induced loss of righting reflex at 30 mg/kg, ip incubated for 30 mins prior to baclofen-challenge; type: functional, organism-based; parameters: dose 30 mg/kg
[2] = Ratio of compound IC50 to COR627 IC50 for mouse NIH/3T3 cells; type: ADME, cell-based, NIH3T3; settings: read-out: Ratio IC50
[3] = Ratio of compound IC50 to COR628 IC50 for mouse NIH/3T3 cells; type: ADME, cell-based, NIH3T3; settings: read-out: Ratio IC50
[4] = Elimination rate constant in mouse liver microsomes at 5 uM after 60 mins by LC/MS/MS analysis; type: ADME, Microsome
[5] = species: Rattus norvegicus; assay: Positive allosteric modulation of GABAB receptor in rat cortical membranes assessed as stimulation of [35S]GTPgammaS binding up to 100 uM after 30 mins by liquid scintillation counting analysis; type: functional, cell membranes; settings: Membrane
[6] = system: Mus musculus; assay: Hypnotic effect in DBA mouse assessed as potentiation of baclofen-induced loss of righting reflex at 1 mg/kg, ip incubated for 30 mins prior to baclofen-challenge; type: functional, organism-based; parameters: dose 1 mg/kg
[7] = system: NIH3T3; assay: Cytotoxicity against mouse NIH/3T3 cells after 24 hrs by neutral red staining-based UV/visible spectrophotometric analysis; type: cell-based; settings: NIH3T3, 24 h
[8] = system: Mus musculus; assay: Hypnotic effect in ip dosed DBA mouse assessed as increase in baclofen-induced duration of loss of righting reflex incubated for 30 mins prior to baclofen-challenge; type: functional, organism-based
[9] = species: Rattus norvegicus; assay: Positive allosteric modulation of GABAB receptor in rat cortical membranes assessed as potentiation of GABA-induced [35S]GTPgammaS binding after 30 mins by liquid scintillation counting analysis; type: functional, cell membranes; settings: Membrane
[10] = system: Mus musculus; assay: Hypnotic effect in DBA mouse assessed as reduction in baclofen-induced onset of loss of righting reflex over 1 mg/kg, ip incubated for 30 mins prior to baclofen-challenge relative to vehicle-treated control; type: functional, organism-based; parameters: dose 1 mg/kg
[11] = system: Mus musculus; assay: Hypnotic effect in DBA mouse assessed as potentiation of baclofen-induced loss of righting reflex at 300 mg/kg, ig incubated for 30 mins prior to baclofen-challenge; type: functional, organism-based; parameters: dose 300 mg/kg
[12] = Intrinsic clearance in mouse liver microsomes assessed per mg protein at 5 uM after 60 mins by LC/MS/MS analysis; type: ADME, Microsome; settings: read-out: CLH
[13] = system: Mus musculus; assay: Hypnotic effect in DBA mouse assessed as potentiation of baclofen-induced loss of righting reflex at 3 mg/kg, ip incubated for 30 mins prior to baclofen-challenge; type: functional, organism-based; parameters: dose 3 mg/kg
[14] = system: Mus musculus; assay: Hypnotic effect in DBA mouse assessed as increase in baclofen-induced duration of loss of righting reflex at 300 mg/kg, ig incubated for 30 mins prior to baclofen-challenge relative to vehicle-treated control; type: functional, organism-based; parameters: dose 300 mg/kg
[15] = Drug metabolism in mouse liver microsomes at 5 uM after 60 mins by LC/MS/MS analysis; type: ADME, Microsome; settings: read-out: Drug metabolism
[16] = system: Mus musculus; assay: Hypnotic effect in DBA mouse assessed as potentiation of baclofen-induced loss of righting reflex at 10 mg/kg, ip incubated for 30 mins prior to baclofen-challenge; type: functional, organism-based; parameters: dose 10 mg/kg
[17] = system: Mus musculus; assay: Hypnotic effect in DBA mouse assessed as reduction in baclofen-induced onset of loss of righting reflex at 300 mg/kg, ig incubated for 30 mins prior to baclofen-challenge relative to vehicle-treated control; type: functional, organism-based; parameters: dose 300 mg/kg
[18] = system: Mus musculus; assay: Hypnotic effect in DBA mouse assessed as increase in baclofen-induced duration of loss of righting reflex over 30 mg/kg, ip incubated for 30 mins prior to baclofen-challenge relative to vehicle-treated control; type: functional, organism-based; parameters: dose 30 mg/kg
[19] = system: Mus musculus; assay: Hypnotic effect in DBA mouse assessed as potentiation of baclofen-induced loss of righting reflex at 100 mg/kg, ip incubated for 30 mins prior to baclofen-challenge; type: functional, organism-based; parameters: dose 100 mg/kg
[20] = system: Mus musculus; assay: Hypnotic effect in DBA mouse assessed as potentiation of baclofen-induced loss of righting reflex at 300 mg/kg, ip incubated for 30 mins prior to baclofen-challenge; type: functional, organism-based; parameters: dose 300 mg/kg
[21] = species: Rattus norvegicus; assay: Positive allosteric modulation of GABAB receptor in rat cortical membranes assessed as potentiation of GABA-induced [35S]GTPgammaS binding at 25 uM after 30 mins by liquid scintillation counting analysis relative to GABA; type: functional, cell membranes; settings: Membrane
[22] = system: Mus musculus; assay: Hypnotic effect in ip dosed DBA mouse assessed as reduction in baclofen-induced onset of loss of righting reflex incubated 30 mins prior to baclofen-challenge; type: functional, organism-based
[23] = system: Plasma; assay: Metabolic stability in mouse plasma at 5 uM after 30 mins by HPLC-MS analysis; type: ADME, cell-free; settings: 0.5 h
[24] = species: Rattus norvegicus; assay: Positive allosteric modulation of GABAB receptor in rat cortical membranes assessed as potentiation of GABA-induced [35S]GTPgammaS binding at 2.5 uM after 30 mins by liquid scintillation counting analysis relative to GABA; type: functional, cell membranes; settings: Membrane
[25] = system: Mus musculus; assay: Hypnotic effect in DBA mouse assessed as potentiation of pentobarbital-induced loss of righting reflex at 30 mg/kg, ip incubated for 30 mins prior to pentobarbital-challenge; type: functional, organism-based; parameters: dose 30 mg/kg
[26] = system: Mus musculus; assay: Hypnotic effect in DBA mouse assessed as potentiation of pentobarbital-induced loss of righting reflex at 300 mg/kg, ip incubated for 30 mins prior to pentobarbital-challenge; type: functional, organism-based; parameters: dose 300 mg/kg
[27] = system: Mus musculus; assay: Hypnotic effect in DBA mouse assessed as increase in pentobarbital-induced duration of loss of righting reflex at 100 mg/kg, ip incubated for 30 mins prior to pentobarbital-challenge; type: functional; settings: route intraperitoneal
[28] = system: Mus musculus; assay: Hypnotic effect in DBA mouse assessed as increase in pentobarbital-induced duration of loss of righting reflex at 30 mg/kg, ip incubated for 30 mins prior to pentobarbital-challenge; type: functional; settings: route intraperitoneal
[29] = system: Mus musculus; assay: Hypnotic effect in DBA mouse assessed as reduction in pentobarbital-induced onset of loss of righting reflex at 100 mg/kg, ip incubated for 30 mins prior to pentobarbital-challenge (reference value: 60.0 +/- 0.0 min); type: functional; settings: route intraperitoneal
[30] = system: Mus musculus; assay: Hypnotic effect in DBA mouse assessed as potentiation of pentobarbital-induced loss of righting reflex at 100 mg/kg, ip incubated for 30 mins prior to pentobarbital-challenge; type: functional, organism-based; parameters: dose 100 mg/kg
[31] = system: Mus musculus; assay: Hypnotic effect in DBA mouse assessed as increase in baclofen-induced duration of loss of righting reflex at 100 to 300 mg/kg, ip incubated for 30 mins prior to baclofen-challenge relative to vehicle-treated control; type: functional, organism-based
[32] = system: Mus musculus; assay: Hypnotic effect in DBA mouse assessed as reduction in pentobarbital-induced onset of loss of righting reflex at 30 mg/kg, ip incubated for 30 mins prior to pentobarbital-challenge (reference value: 60.0 +/- 0.0 min); type: functional; settings: route intraperitoneal
[33] = system: Mus musculus; assay: Hypnotic effect in DBA mouse assessed as reduction in baclofen-induced onset of loss of righting reflex over 10 mg/kg, ip incubated for 30 mins prior to baclofen-challenge relative to vehicle-treated control; type: functional, organism-based; parameters: dose 10 mg/kg
[34] = system: Mus musculus; assay: Hypnotic effect in DBA mouse assessed as reduction in pentobarbital-induced onset of loss of righting reflex at 300 mg/kg, ip incubated for 30 mins prior to pentobarbital-challenge (reference value: 60.0 +/- 0.0 min); type: functional; settings: route intraperitoneal
[35] = species: Rattus norvegicus; assay: Positive allosteric modulation of GABAB receptor in rat cortical membranes assessed as potentiation of GABA-induced [35S]GTPgammaS binding at 10 uM after 30 mins by liquid scintillation counting analysis relative to GABA; type: functional, cell membranes; settings: Membrane
[36] = system: Mus musculus; assay: Hypnotic effect in DBA mouse assessed as increase in pentobarbital-induced duration of loss of righting reflex at 300 mg/kg, ip incubated for 30 mins prior to pentobarbital-challenge; type: functional; settings: route intraperitoneal

With CCc1c(C)sc(NC(=O)c2ccc(C(C)(C)C)cc2)c1C(=O)OC the Activity [1] was “Active”, the selectivity ratio [2] was 4 and the selectivity ratio [3] was 4. For the same compound, the k el at 1 h, 5 µM [4] was 0.000144 s⁻¹, the Activity [5] was “inactive” and the Activity [6] was “Active”. The IC50 [7] was 140 µM, the Activity [8] was “Dose-dependent effect” and the Activity [9] was “inactive”. The Activity [10] was “Active”, the Activity [11] was “Active” and the microsomal CLint at 5 µM [12] was 8.98 µL/min/mg. The Activity [13] was “Active”, the Activity [14] was “Active” and the metabolised at 1 h, 5 µM [15] was 32%. For the same compound, the Activity [16] was “Active”, the Activity [17] was “Active” and the Activity [18] was “Active”. The Activity [19] was “Active”, the Activity [20] was “Active” and the Activity [21] was 23.2%. For the same compound, the Activity [22] was “Dose-dependent effect”, the Stability [23] was “Unstable” and the Activity [24] was 19%.

With CSc1nc(NC2CCCC2)c([N+](=O)[O-])c(NC2CCCC2)n1 [GS-39783] the Activity [25] was “inactive”, the Activity [1] was “Active” and the IC50 [7] was 60 µM. The Activity [8] was “Dose-dependent effect”, the Activity [26] was “Active” and the Activity [11] was “Active”. For the same compound, the Time [27] was 0 min, the Activity [13] was “inactive” and the Activity [14] was “Active”. For the same compound, the Time [28] was 0 min, the Time [29] was 60 min and the Activity [30] was “inactive”. The Activity [16] was “Active”, the Activity [17] was “Active” and the Activity [31] was “Active”. The Time [32] was 60 min, the Activity [33] was “Active” and the Activity [19] was “Active”. For the same compound, the Time [34] was 57.3 min, the Activity [20] was “Active” and the Activity [35] was 59%. The Activity [22] was “Dose-dependent effect” and the Time [36] was 2.3 min.
